The values below come from patent US11858941B2, “Heterocyclic and heteroaryl compounds for treating Huntington's disease” (PTC THERAPEUTICS, INC., priority 2018, dated 2024).

The structures appear in SMILES notation.

The IC50 is the midpoint of a concentration-inhibition curve. Read a low IC50 as higher potency.

The subject of the assay is Endogenous Huntingtin Protein. Put plainly: Endogenous Huntingtin Protein Assay (Meso Scale Discovery ELISA-based electrochemiluminescence). In kind it is cell-based. Conditions: MSD plates coated with MW1 (expanded polyglutamine) or MAB2166 capture antibody; lysates. In outline: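 MSD electrochemiluminescence sandwich ELISA: MW1 (expanded polyQ) or MAB2166 capture antibody at 1 μg/mL, samples incubated overnight at 4° C. Detection with rabbit monoclonal #5656S then SULFO-TAG anti-rabbit antibody, each 0.25 μg/mL for 1 h at room temperature.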
For `CC1(C)CC(n2nnc3cc(-c4ccc(-c5cc[nH]c(=O)c5)cc4O)nnc32)CC(C)(C)N1` [Cpd 93, 4-{3-hydroxy-4-[3-(2,2,6,6-tetramethylpiperidin-4-yl)-3H-[1,2,3]triazolo[4,5-c]pyridazin-6-yl]phenyl}pyridin-2(1H)-one], the IC50 is no more than 0.1 µM.
Then `CC(C)(C)NC1CCC(n2nnc3cc(-c4ccc(-c5cn[nH]c5)cc4O)nnc32)C1` (stereo not drawn) [Cpd 175, 2-{3-[3-(tert-butylamino)cyclopentyl]-3H-[1,2,3]triazolo[4,5-c]pyridazin-6-yl}-5-(1H-pyrazol-4-yl)phenol], with 0.5 to 1 µM; and `Oc1cc(-c2cn[nH]c2)ccc1-c1cc2[nH]cc(C3CC4COCC(C3)N4)c2nn1` (stereo not drawn) [Cpd 30, 2-[7-(3-oxa-9-azabicyclo[3.3.1]non-7-yl)-5H-pyrrolo[3,2-c]pyridazin-3-yl]-5-(1H-pyrazol-4-yl)phenol], with 0.5 to 1 µM; and `Cn1cc(-c2ccc(-c3cc4cnn(C5CC(C)(C)NC(C)(C)C5)c4nn3)c(O)c2)c(F)n1` [Cpd 148], with no more than 0.1 µM.
Then `CC1(C)CC(n2nnc3cc(-c4ccc(-c5cncnc5)cc4O)nnc32)CC(C)(C)N1` [Cpd 78, 5-(pyrimidin-5-yl)-2-[3-(2,2,6,6-tetramethylpiperidin-4-yl)-3H-[1,2,3]triazolo[4,5-c]pyridazin-6-yl]phenol], with 1 to 3 µM.
Then `CC1(C)CC(n2nnc3cc(-c4c(O)cc(-c5cn[nH]c5)cc4F)nnc32)CC(C)(C)N1` [Cpd 59, 3-fluoro-5-(1H-pyrazol-4-yl)-2-[3-(2,2,6,6-tetramethylpiperidin-4-yl)-3H-[1,2,3]triazolo[4,5-c]pyridazin-6-yl]phenol], with no more than 0.1 µM.
Compound `Cc1cn(-c2ccc(-c3cc4nnn(C5CC(C)(C)NC(C)(C)C5)c4nn3)c(O)c2)c(C)n1` [Cpd 149, 5-(2,4-dimethyl-1H-imidazol-1-yl)-2-[3-(2,2,6,6-tetramethylpiperidin-4-yl)-3H-[1,2,3]triazolo[4,5-c]pyridazin-6-yl]phenol] gave a half-maximal inhibitory concentration (IC50) of 1 to 3 µM.
As to `CC1(C)CC(n2ccc3cc(-c4ccc(-c5cn[nH]c5)cc4O)nnc32)CC(C)(C)N1` [Cpd 26, 5-(1H-pyrazol-4-yl)-2-[7-(2,2,6,6-tetramethylpiperidin-4-yl)-7H-pyrrolo[2,3-c]pyridazin-3-yl]phenol], the IC50 is no more than 0.1 µM.
Then `Cn1cc(-c2ccc(-c3cc4nnn(C5CC(C)(C)NC(C)(C)C5)c4nn3)c(O)c2)cn1` [Cpd 39, 5-(1-methyl-1H-pyrazol-4-yl)-2-[3-(2,2,6,6-tetramethylpiperidin-4-yl)-3H-[1,2,3]triazolo[4,5-c]pyridazin-6-yl]phenol], with no more than 0.1 µM.
Then `CC1(C)CC(n2nnc3cc(-c4ccc(-c5ncc[nH]5)cc4O)nnc32)CC(C)(C)N1` [Cpd 91, 5-(1H-imidazol-2-yl)-2-[3-(2,2,6,6-tetramethylpiperidin-4-yl)-3H-[1,2,3]triazolo[4,5-c]pyridazin-6-yl]phenol], with 1 to 3 µM.
Then `CCn1cc(-c2ccc(-c3cc4nnn(C5CC(C)(C)NC(C)(C)C5)c4nn3)c(O)c2)cn1` [Cpd 46, 5-(1-ethyl-1H-pyrazol-4-yl)-2-[3-(2,2,6,6-tetramethylpiperidin-4-yl)-3H-[1,2,3]triazolo[4,5-c]pyridazin-6-yl]phenol], with 0.5 to 1 µM; and `CC1(C)CC(n2nnc3cc(-c4ccc(-c5c[nH]nc5Cl)cc4O)nnc32)CC(C)(C)N1` [Cpd 129, 5-(3-chloro-1H-pyrazol-4-yl)-2-[3-(2,2,6,6-tetramethylpiperidin-4-yl)-3H-[1,2,3]triazolo[4,5-c]pyridazin-6-yl]phenol], with no more than 0.1 µM; and `Cc1cnn(-c2ccc(-c3cc4nnn(C5CC(C)(C)NC(C)(C)C5)c4nn3)c(O)c2)c1` [Cpd 156, 5-(4-methyl-1H-pyrazol-1-yl)-2-(3-(2,2,6,6-tetramethylpiperidin-4-yl)-3H-[1,2,3]triazolo[4,5-c]pyridazin-6-yl)phenol], with 0.1 to 0.5 µM.
In the case of `CC1(C)CC(n2nnc3cc(-c4ccc(-c5ncns5)cc4O)nnc32)CC(C)(C)N1` [Cpd 134, 2-[3-(2,2,6,6-tetramethylpiperidin-4-yl)-3H-[1,2,3]triazolo[4,5-c]pyridazin-6-yl]-5-(1,2,4-thiadiazol-5-yl)phenol], the half-maximal inhibitory concentration (IC50) was no more than 0.1 µM.
Then `CC1(C)C=C(c2c[nH]c3cc(-c4ccc(-c5cn[nH]c5)cc4O)nnc23)CC(C)(C)N1` [Cpd 20, 5-(1H-pyrazol-4-yl)-2-[7-(2,2,6,6-tetramethyl-1,2,3,6-tetrahydropyridin-4-yl)-5H-pyrrolo[3,2-c]pyridazin-3-yl]phenol], with no more than 0.1 µM; and `CNc1cc(-c2ccc(-c3cc4nnn(C5CC(C)(C)NC(C)(C)C5)c4nn3)c(O)c2)ccn1` [Cpd 104, 5-[2-(methylamino)pyridin-4-yl]-2-[3-(2,2,6,6-tetramethylpiperidin-4-yl)-3H-[1,2,3]triazolo[4,5-c]pyridazin-6-yl]phenol], with no more than 0.1 µM.
Then `CC1(C)CC(n2nnc3cc(-c4cc(F)c(-c5cn[nH]c5)cc4O)nnc32)CC(C)(C)N1` [Cpd 35, 4-fluoro-5-(1H-pyrazol-4-yl)-2-[3-(2,2,6,6-tetramethylpiperidin-4-yl)-3H-[1,2,3]triazolo[4,5-c]pyridazin-6-yl]phenol], with no more than 0.1 µM; and `Cc1ncc(-c2ccc(-c3cc4nnn(C5CC(C)(C)NC(C)(C)C5)c4nn3)c(O)c2)s1` [Cpd 150, 5-(2-methyl-1,3-thiazol-5-yl)-2-[3-(2,2,6,6-tetramethylpiperidin-4-yl)-3H-[1,2,3]triazolo[4,5-c]pyridazin-6-yl]phenol], with no more than 0.1 µM.
Then `CC1(C)CC(n2nnc3cc(-c4ccc(-c5nncs5)cc4O)nnc32)CC(C)(C)N1` [Cpd 116, 2-[3-(2,2,6,6-tetramethylpiperidin-4-yl)-3H-[1,2,3]triazolo[4,5-c]pyridazin-6-yl]-5-(1,3,4-thiadiazol-2-yl)phenol], with no more than 0.1 µM; and `Cc1n[nH]cc1-c1ccc(-c2cc3nnn(C4CC(C)(C)NC(C)(C)C4)c3nn2)c(O)c1` [Cpd 108, 5-(3-methyl-1H-pyrazol-4-yl)-2-[3-(2,2,6,6-tetramethylpiperidin-4-yl)-3H-[1,2,3]triazolo[4,5-c]pyridazin-6-yl]phenol], with no more than 0.1 µM.
`CC1(C)CC(n2nnc3cc(-c4ccc(-c5cc(F)c6nn[nH]c6c5)cc4O)nnc32)CC(C)(C)N1` [Cpd 135, 5-(4-fluoro-1H-benzotriazol-6-yl)-2-[3-(2,2,6,6-tetramethylpiperidin-4-yl)-3H-[1,2,3]triazolo[4,5-c]pyridazin-6-yl]phenol]: the 50% inhibitory concentration (IC50) was no more than 0.1 µM.
Then `CC1(C)CC(n2nnc3cc(-c4ccc(-c5ccn6cncc6c5)cc4O)nnc32)CC(C)(C)N1` [Cpd 88, 5-(imidazo[1,5-a]pyridin-7-yl)-2-[3-(2,2,6,6-tetramethylpiperidin-4-yl)-3H-[1,2,3]triazolo[4,5-c]pyridazin-6-yl]phenol], with 0.1 to 0.5 µM; and `Cc1cn(-c2ccc(-c3cc4nnn(C5CC(C)(C)NC(C)(C)C5)c4nn3)c(O)c2)cn1` [Cpd 144, 5-(4-methyl-1H-imidazol-1-yl)-2-[3-(2,2,6,6-tetramethylpiperidin-4-yl)-3H-[1,2,3]triazolo[4,5-c]pyridazin-6-yl]phenol], with no more than 0.1 µM.
Then `CC1(C)CC(n2nnc3cc(-c4ccc(-c5ccn6ncnc6c5)cc4O)nnc32)CC(C)(C)N1` [Cpd 126, 2-[3-(2,2,6,6-tetramethylpiperidin-4-yl)-3H-[1,2,3]triazolo[4,5-c]pyridazin-6-yl]-5-([1,2,4]triazolo[1,5-a]pyridin-7-yl)phenol], with 0.1 to 0.5 µM.
